Source: patent publication US10882853B2, “Tyrosine kinase inhibitor and application thereof” (LaNova Medicines Limited, priority 2016, dated 2021)
Read-outs that look alike come from different tables or passages of the source.

Experiments:
[1] = tested on: human malignant glioma cells U87MG; test: Inhibition on the proliferation of tumor cells (CCK8), U87MG; type: cell-based; conditions: read-out: U87MG IC50
Experimental: (§1) (1) Culture cells: The tumor cells (such as human lung adenocarcinoma cells HCC78, human malignant glioma cells U87MG, human gastric cancer cells MKN-45, human umbilical vein endothelial cells HUVEC, human lung adenocarcinoma cells A549, etc.) were cultured in culture medium; culture conditions: 37° C., 5% CO2.
(§2) (2) Inoculate cells: The cells at the exponential growth phase and in good state were taken, and an appropriate amount of pancreatin for cell dissociation was added thereto, the cells were collected for centrifugation, and the supernatant was discarded. The cells were resuspended with the culture solution containing serum, then counted, and the cell suspensions were taken and inoculated in a 96-hole plate at 3000/hole, 90 μL/hole. The culture plate was transferred into a constant temperature CO2 incubator, and cultured under the conditions of 37° C., 5% CO2 and saturated humidity for 24 h.
(§3) (3) Add the test compounds: 10 μL/hole, culture for 72 h, 3 parallel holes were set for each group.
(§4) (4) Determine the results: After 72 h of action for the compounds, 10 μL/hole CCK8 was added, incubated in the incubator for an appropriate time, and the absorbance was measured at 450 nm.

[2] = tested on: human ovarian cancer cells SK-OV-3; test: Inhibition on the proliferation of tumor cells (CCK8), SK-OV-3; type: cell-based; conditions: for IC50: read-out: SK-OV-3 IC50
Experimental: as §1, §2, §3

KDR = KDR (Homo sapiens (Human), UniProt P35968); test: Inhibitory activity on KDR kinase (HTRF, XL-665/antibody); type: biochemical
Experimental: The compounds in the above Examples are used for detecting and screening the inhibitory activities of C-MET and KDR kinase.
(2) Incubated at 25° C. for 5 min;
(3) 2 μL of ATP/substrate/MgCl2/MnCl2/SEB/DTT mixed solution were added into the holes;
(4) Centrifugated at 1000 rpm for 1 min, and incubated by vibration at 30° C. for 30 min;
(6) Incubated at 25° C. for 1 h;
(8) The data was analyzed according to the instructions of the kit, and the fitting calculation of IC50 was performed using GraphPad Prism5.

[3] = tested on: human lung adenocarcinoma cells A549; test: Inhibition on the proliferation of tumor cells (CCK8), A549; type: cell-based; conditions: for IC50: read-out: A549 IC50
Experimental: as §1, §2, §3

[4] = tested on: human colon cancer cells HCT116; test: Inhibition on the proliferation of tumor cells (CCK8), HCT116; type: cell-based; conditions: for IC50: read-out: HCT116 IC50
Experimental: as §1, §2, §3

[5] = tested on: human gastric cancer cells MKN-45; test: Inhibition on the proliferation of tumor cells (CCK8), MKN-45; type: cell-based; conditions: read-out: MKN-45 IC50
Experimental: as §1, §2, §3, §4

[6] = tested on: human lung adenocarcinoma cells HCC78; test: Inhibition on the proliferation of tumor cells (CCK8), HCC78; type: cell-based; conditions: read-out: HCC78 IC50
Experimental: as §1, §2, §3

KDR, sequence (P35968 20-1356): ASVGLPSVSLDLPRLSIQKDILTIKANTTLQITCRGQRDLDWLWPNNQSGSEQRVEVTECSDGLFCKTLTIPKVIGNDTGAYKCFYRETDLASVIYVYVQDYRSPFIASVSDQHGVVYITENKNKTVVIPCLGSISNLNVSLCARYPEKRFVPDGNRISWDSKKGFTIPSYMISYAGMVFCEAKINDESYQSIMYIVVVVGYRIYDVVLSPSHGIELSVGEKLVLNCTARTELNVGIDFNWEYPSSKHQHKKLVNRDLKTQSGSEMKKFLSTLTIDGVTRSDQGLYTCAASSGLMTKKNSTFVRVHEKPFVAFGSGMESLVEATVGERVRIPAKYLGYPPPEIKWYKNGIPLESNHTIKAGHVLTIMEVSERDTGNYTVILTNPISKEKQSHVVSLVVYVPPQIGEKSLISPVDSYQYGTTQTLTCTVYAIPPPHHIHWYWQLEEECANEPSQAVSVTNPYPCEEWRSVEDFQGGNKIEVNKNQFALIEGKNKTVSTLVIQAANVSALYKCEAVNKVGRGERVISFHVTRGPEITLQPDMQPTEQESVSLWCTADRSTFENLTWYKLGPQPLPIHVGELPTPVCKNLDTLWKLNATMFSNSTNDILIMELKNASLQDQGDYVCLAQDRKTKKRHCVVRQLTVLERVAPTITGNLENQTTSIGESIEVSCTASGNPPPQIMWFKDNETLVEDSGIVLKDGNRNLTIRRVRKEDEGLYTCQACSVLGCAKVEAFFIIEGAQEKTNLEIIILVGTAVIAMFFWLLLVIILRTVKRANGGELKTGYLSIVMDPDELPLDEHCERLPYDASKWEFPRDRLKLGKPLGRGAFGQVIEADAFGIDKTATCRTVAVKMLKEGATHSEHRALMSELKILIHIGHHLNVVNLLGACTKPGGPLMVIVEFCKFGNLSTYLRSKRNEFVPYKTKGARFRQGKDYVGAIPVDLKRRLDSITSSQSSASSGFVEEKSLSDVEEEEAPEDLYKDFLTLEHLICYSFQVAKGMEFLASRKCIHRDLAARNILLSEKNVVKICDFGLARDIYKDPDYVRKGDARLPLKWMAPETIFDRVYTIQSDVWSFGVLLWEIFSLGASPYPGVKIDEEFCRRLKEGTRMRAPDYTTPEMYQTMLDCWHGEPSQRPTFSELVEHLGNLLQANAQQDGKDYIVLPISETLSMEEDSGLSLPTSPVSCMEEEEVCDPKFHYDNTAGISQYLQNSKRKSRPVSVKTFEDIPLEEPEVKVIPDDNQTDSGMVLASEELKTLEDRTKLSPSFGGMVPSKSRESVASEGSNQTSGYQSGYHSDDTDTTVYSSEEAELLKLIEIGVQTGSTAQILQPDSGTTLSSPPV

**Q.** What does the source list for `COc1cc2c(Oc3ccc(NC(=O)C4(C(=O)Nc5ccc(F)cc5)CC4)cc3F)ccnc2cc1OCC1CC(N2CCOCC2)C1` (centres unmarked) [Compound 5]?
**A.** IC50 ([1]; 72 h, CCK8): 1140 nM; IC50 ([2]; 72 h, CCK8): 3490 nM; IC50 (KDR): 39.9 nM; IC50 ([3]; 72 h, CCK8): 1600 nM; IC50 ([4]; 72 h, CCK8): 1660 nM; IC50 ([5]; 72 h, CCK8): 1260 nM; IC50 ([6]; Table 4 (FIG. 4), 72 h, CCK8): 44.2 nM

**Q.** For `COc1cc2c(Oc3ccc(NC(=O)C4(C(=O)Nc5ccc(F)cc5)CC4)cc3F)ccnc2cc1OC1CC(N2CCOCC2)C1` (centres unmarked) [Compound 10, N-p-fluorophenyl-N-3-fluoro-4-[6-methoxyl-7-(3-morpholine-cyclobutyl)oxyquinoline-4-]oxyphenyl cyclopropyl-1,1-dimethyl formamide], which IC50 [1] is on record?
**A.** Its IC50 is 1600 nM.

**Q.** And the IC50 [2]?
**A.** The IC50 was 7850 nM.

**Q.** And the IC50 (KDR)?
**A.** Its IC50 is 64.2 nM.

**Q.** What about the IC50 [3] of the same molecule?
**A.** The IC50 was 4400 nM.

**Q.** What about the IC50 [4] of the same molecule?
**A.** Its IC50 is 2600 nM.

**Q.** And the IC50 [5]?
**A.** The IC50 was 3200 nM.

**Q.** What about the IC50 [6] of the same molecule?
**A.** Its IC50 is 107 nM.

**Q.** For `COc1cc2c(Oc3ccc(NC(=O)C4(C(=O)Nc5ccc(F)c(F)c5)CC4)cc3F)ccnc2cc1OCCC[N+]1(C)CCOCC1` [For-Methyl, reference compound], which “SK-OV-3 IC50” value [2] is on record?
**A.** The value was “No inhibition”.

**Q.** And the “A549 IC50” value [3]?
**A.** The value was “No inhibition”.

**Q.** What about the “HCT116 IC50” value [4] of the same molecule?
**A.** Its value is “No inhibition”.

**Q.** And the IC50 ([6]; Homo sapiens, HCC78, 72 h)?
**A.** The IC50 was over 10000 nM.

**Q.** `COc1cc2c(Oc3ccc(NC(=O)C4(C(=O)Nc5ccc(F)cc5)CC4)cc3F)ccnc2cc1OCCCN1CCOCC1` [Foretinib, reference compound] was tested. Which IC50 ([1]; Homo sapiens, U-87 MG, 72 h) did it give?
**A.** The IC50 was 1650 nM.

**Q.** What about the IC50 ([2]; Homo sapiens, SK-OV-3, 72 h) of the same molecule?
**A.** The IC50 was 17200 nM.

**Q.** And the IC50 ([3]; Homo sapiens, A549, 72 h)?
**A.** The IC50 was 2830 nM.

**Q.** What about the IC50 ([4]; Homo sapiens, HCT-116, 72 h) of the same molecule?
**A.** The IC50 was 2060 nM.

**Q.** What about the IC50 ([5]; Homo sapiens, MKN-45, 72 h) of the same molecule?
**A.** The IC50 was 1870 nM.
